Experimental data published in patent US6140341A, “Aminoalkyl and acylaminoalkyl ethers, process for their preparation, and their use as bradykinin receptor antagonists” (Hoechst Aktiengesellschaft, priority 1996, dated 2000).

Columns and labels:
[1] = tested on: bradykinin-induced contraction of the guinea pig ileum; experiment: Bradykinin-antagonistic effect on the bradykinin-induced contraction of the isolated guinea pig ileum; details: Cavia porcellus, 10 min, Tyrode solution 37° C., antagonist action time 10 min
Source text: Furthermore, to determine the bradykinin-antagonistic effect of the compounds of the formula (I) it is possible to measure their effect on the bradykinin-induced contraction of the guinea pig ileum by the following protocol:
Guinea pigs weighing about 300 g (Morioth strain,--) are sacrificed by a blow to the back of the neck and are exsanguinated. A length of about 20 cm of ileum is dissected out and rinsed with Tyrode solution (Record syringe), thus removing intestinal contents. It is then divided into segments 1.5 cm long. These are fixed in organ baths with a capacity of 10 ml which are filled with Tyrode solution, and are connected to strain gauges (isometric contraction measurement). The initial load is 1 g. The Tyrode solution is heated in a water bath to 37° C., and compressed air is bubbled through.
After an interval of 30 min, the experiment is started. After recording the biological zero line, bradykinin is added to each organ bath in a final concentration of […], and the concentration is recorded. Then, after rinsing with Tyrode solution for 3 min and a resting period of 20 min, bradykinin is again added. The maximum contraction is reached (control). Rinsing and resting period repeated. The bradykinin antagonist is then added (action time 10 min.). […] The experiment is recorded on a pen recorder. […]

[2] = molecular target: T1, bradykinin B2 receptor (Cavia porcellus, UniProt O70526); experiment: Affinity for the bradykinin B2 receptor on membrane preparations from guinea pig ileum (3H-bradykinin competition); format: binding; details: 3H-bradykinin (0.25 to 0.3 nMol/l), guinea pig ileum membranes, pH 6.8, room temperature, 60 minutes
T1 construct: preparations of membranes from the guinea pig ileum; from tissue; host or cells: guinea pig ileum membranes
T1 sequence (O70526 1-372): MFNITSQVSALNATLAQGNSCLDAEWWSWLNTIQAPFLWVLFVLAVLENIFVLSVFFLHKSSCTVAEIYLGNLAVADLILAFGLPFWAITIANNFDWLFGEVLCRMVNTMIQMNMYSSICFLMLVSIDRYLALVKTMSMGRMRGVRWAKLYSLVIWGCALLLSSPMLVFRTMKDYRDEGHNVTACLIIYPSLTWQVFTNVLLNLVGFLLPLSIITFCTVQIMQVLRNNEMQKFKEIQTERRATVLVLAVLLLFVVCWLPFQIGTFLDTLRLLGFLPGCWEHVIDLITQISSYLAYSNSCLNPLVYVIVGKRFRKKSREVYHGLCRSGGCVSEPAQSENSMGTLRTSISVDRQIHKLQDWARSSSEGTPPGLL
Procedure: Determination of the affinity of the compounds of the formula (I) for the bradykinin B2 receptor took place on preparations of membranes from the guinea pig ileum (R. B. Innis et al., Proc. Natl. Acad. Sci. USA; […] (1981) 2630) by the following method:
1. Ligand: ^3 H-BRADYKININ (from NEN Du Pont)
25 mM TES (SIGMA, Order No.: T-4152)
1 mM 1,10-phenanthroline (SIGMA; Order No.: P-9375)
25 mM TES (SIGMA; Order No.: T-4152)
0.1% albumin, bovine (SIGMA; Order No.: A-7906)
140 μg/ml bacitracin (SIGMA; Order No.: B-0125)
1 mM dithiothreitol (SIGMA; Order No.: D-0632)
1 μM captopril-1-[(2S)-3-mercapto-2-methylpropionyl]-L-proline
Both buffers are adjusted to pH 6.8 with 5 molar NaOH.
Guinea pig ilea are carefully squeezed out to remove most of the intestinal contents and are cleaned in 0.9% strength NaCl solution.
The pieces of ilea about 2 cm long are transferred into ice-cold TES buffer (about 1 g/10 ml) and homogenized with an Ultraturrax in an ice bath for about 30 sec. The homogenate is then filtered through 3 layers of gauze and the filtrate is centrifuged at 50,000 g for 10 minutes.
The supernatant is discarded, and the pellet is rehomogenized in the same volume of TES buffer and again centrifuged at 50,000 g for 10 minutes. The pellet is rehomogenized in incubation buffer (about 1 g/5 ml) and frozen in 2 ml portions in cryotubes at -70° C.
The protein concentration in the finished membrane suspension is determined by the LOWRY method and should be about 15 μg/100 μl.
All the incubations are carried out in a volume of 200 μl in microtiter plates (96×300 μl) at room temperature for 60 minutes. All mixtures in incubation bufler. 50 μl of the radioligands, 50 μl of the product to be tested and 100 μl of the membrane suspension are successively pipetted into these in the wells of the microtiter plate. […]
a) Saturation experiments (hot saturation): […]
Nonspecific binding: The nonspecific binding must be determined for each concentration of the radioactive ligand. […]

| IC50 [1] | Ki [2] | Compound |
| --- | --- | --- |
| 1800 nM | – | Cc1ccc2cccc(OCc3c(Cl)ccc(OCCN)c3Cl)c2n1 [Example 1, 8-[3-(2-aminoethoxy)-2,6-dichlorobenzyloxy]-2-methylquinoline] |
| – | 20 nM | Cc1ccc2cccc(OCc3c(Cl)ccc(OCCNC(=O)/C=C/c4ccc(N)cc4)c3Cl)c2n1 [Example 2, 8-[3-(2-N-(trans-4-aminocinnamoyl)aminoethoxy)-2,6-dichlorobenzyloxy]-2-methylquinoline] |
| – | 61 nM | Cc1ccc2cccc(OCc3c(Cl)ccc(OCCNC(=O)/C=C/c4ccccc4)c3Cl)c2n1 [Example 5, 8-[2,6-dichloro-3-(trans-2-N-cinnamoylaminoethoxy)benzyloxy]-2-methylquinoline] |
| – | 32 nM | COc1ccc(/C=C/C(=O)NCCOc2ccc(Cl)c(COc3cccc4ccc(C)nc34)c2Cl)cc1 [Example 6, 8-[2,6-dichloro-3-(2-N-(trans-4-methoxycinnamoyl)aminoethoxy)benzyloxy]-2-methylquinoline] |
